Reference: patent US20120010229A1, “THERAPEUTIC REGIMENS FOR HEDGEHOG-ASSOCIATED CANCERS” (priority 2010, published 2012)

What was measured:
[1] = tested on: L3.6pl P-lucky liver metastasis; assay: L3.6pl liver metastasis model, Study #1; assay type: in vivo; conditions: for H&E staining of liver, tumor cells or metastasis: day 21
Description: Cells: L3.6pl is a pancreatic cancer cell line that has been tagged with the bioluminescence marker, luciferase, and is known to form metastasis in the liver (pl—pancreas to liver). Cells were cultured in RPMI+10% FBS and harvested on the day of implant. A single cell suspension was prepared in PBS at a concentration of 10 million cells per 1 ml of PBS. These cells were kept at 4° C. until implantation.
Model Procedure: Animals were anesthetized and prepared for surgery. The animal's spleen was exposed and 100 μl (1 million cells) of the L3.6pl single cell suspension was injected directly in the spleen towards the splenic vein (intra splenic injection). Once the injection was complete, the splenic artery and splenic vein were ligated, the spleen was excised, and the animals' wounds were closed. Post-op care and analgesia was given for 4 consecutive days and animals were monitored for recovery.
Prior to the procedure listed above 40 animals were separated into 4 groups consisting of 10 animals each.
Animals in group 2 (Pre-Treatment), received IPI-926 every-other-day for 14 days, prior to the intra splenic injection procedure, continuing until the study end.
Animals in group 3 (Day-of-Treatment), received IPI-926 every-other-day beginning on the day of the intra splenic injection procedure, continuing until the study end.
Animals in group 4 (Post-Treatment), received IPI-926 every-other-day beginning 7 days after the intra splenic injection procedure, continuing until the study end.
Results Procedure: Animals were injected with 10 ml/kg of luciferin concentrated at […] via I.P. injection. This luciferin binds to the L3.6pl P-Lucky cells injected on day 0. Utilizing Calipers Xenogen© machine, this cell-luciferin association emits bioluminescence that can be read and quantified (total flux).
Results: The graphs in FIGS. 10A-10B represent the quantification, normalized on each day to the average of vehicle treated animals. This normalization was done using the formula: (1/(average flux of vehicle animals/average flux of group X (group being compared))).

[2] = tested on: Ptc^C/C medulloblastoma; assay: Ptc^C/C mouse medulloblastoma model: survival, symptoms, MRI tumor volume; assay type: in vivo
Source text: Transgenic mice were maintained in accordance with the NIH Guide for the Care and Use of Experimental Animals with approval from our Institutional Animal Care and Use Committee. Conditional Patched1 null mice (Ptc^C/C) were generated on a mixed background by breeding mice homozygous for the floxed Ptch1 allele (Adolphe et al., (2006) Cancer Res 66: 2081-2088) to Math1-Cre mice, as previously described (Yang et al. (2008) Cancer Cell 14: 135-145). Mice were genotyped by PCR using genomic DNA using the following primers:
Animal experiments were performed in accordance with the NIH Guide for the Care and Use of Experimental Animals with approval from our Institutional Animal Care and Use Committee. 100% penetrance of medulloblastoma in the Ptc^C/C mice was observed, with all mice displaying symptoms of tumor formation by the time of weaning. Ptc^C/C mice (age ranging from 21-36 days) were randomized to receive either IPI-926 (Infinity Pharmaceuticals) or vehicle control (5% (2-Hydroxylpropyl)-B-Cyclodextrin (HPBCD), Sigma Aldrich) administered via intraperitoneal (IP) injection.
Mice were euthanized using CO2 inhalation, brains were removed and tissue snap frozen for RNA studies or fixed in 10% buffered formalin and processed for histopathological examination. Formalin-fixed tissues were paraffin embedded, cut into 4 um sections and stained with Haematoxylin and Eosin using standard methods.
Magnetic resonance imaging (MRI) was performed using a 3 Tesla MRI system (Philips Achieva, Philips Healthcare, Andover, Mass.) and a custom mouse head coil. Serial MR scans were performed using a 35 minute coronal high-resolution T2-weighted sequence (TE=110 ms, TR=2000 ms, bandwidth=212, 2 NEX or signal averages, a matrix of 256×256 pixels in-plane, slice thickness of 320 microns and an interslice gap of 160 microns). Mice were scanned under halothane anesthesia at enrollment, after 3 weeks of treatment, and after 6 weeks of treatment. Ctx:Cy5.5 bioconjugate (Tumor Paint) was given by intravenous tail vein injection one day prior to animal sacrifice. Biophotonic images were obtained using the Xenogen Spectrum imaging system (Caliper Life Sciences) as previously described (Veiseh et al. (2007) Cancer 67: 6882-6888).
DICOM images were exported from the MRI scanner to a web-based repository (BioScribe) and then imported into ITK-SNAP (version 2.0, available on the world wide web at itksnap.org). Images were first windowed to accentuate tumor/brain contrast, easily observed on the T2-weighted scans. […] Effacement of the fourth ventricle was accompanied by lateral and third ventriculomegaly and transependymal CSF flow. Tumor and enlarged cerebellum was seen to herniate into the internal auditory canals (IAC) bilaterally. After each imaging time-point, using the manual tracing tool, tumor tissue (including the IAC components) was painted in three planes excluding frank cerebrospinal fluid or cystic regions. The resultant segmentation file was saved for later use. Three-dimensional surface-rendered reconstructions were then performed and saved in two standard projections for each tumor analyzed, with the aim of delineating a consistent view of the tumor for comparison between pre- and post-treatment scans and between treatment groups. Automated pixel counting multiplied by image pixel dimensions yielded volumetric measures for each segmentation analysis dataset. In addition to quantitative analysis, pre and post-treatment scans were compared for evaluation of secondary changes such as hydrocephalus, prominent extra-axial spaces, cystic change/necrosis in treated tumor and any evidence of hemorrhage.
Studies were designed to detect differences in event rates that approximately corresponded to a doubling of median improvement in survival of (3 weeks) with 90% power based on simulated power experiments. […]

CC1=C2C[C@H]3[C@@H](CC[C@@H]4C[C@H](NS(C)(=O)=O)CC[C@@]43C)[C@@H]2CC[C@@]2(C1)O[C@@H]1C[C@H](C)CN[C@H]1[C@H]2C [IPI-926] was tested, and the “reduction in flux (bioluminescence) below vehicle” value ([1]; IPI-926 every-other-day from 14 days prior to implant) was 20-25 fold, the “take or growth of metastasis within the liver” value ([1]; day of implant treatment (Day 0)) was “no detectable effect” and the “H&E staining of liver, tumor cells or metastasis” value (shortened to “H&E staining of liver”) ([1]; day of treated group) was “visible metastasis and tumors cells present”. For the same compound, the “survival rate vs vehicle” value ([1]; day of treatment group) was “survival rates similar to vehicle treated animals”, the “take or growth of metastasis within the liver” value ([1]; post implant treatment (Day 7)) was “no detectable effect” and the “H&E staining of liver” value ([1]; post treated group) was “visible metastasis and tumors cells present”. For the same compound, the “survival rate vs vehicle” value ([1]; post treatment group) was “survival rates similar to vehicle treated animals”, the “H&E staining of liver” value ([1]; pre-treatment animal) was “no detectable tumor cells or metastasis” and the “overall survival rate vs vehicle” value ([1]; treatment from 14 days prior to implant) was “doubles the overall survival rate”. The “fraction of mice with rebound in tumor growth by 6 weeks (MRI)” value ([2]; 20 mg/kg/day, after maximal size reduction at 3 weeks) was “approximately half”, the “tumor volume by MRI” value ([2]; after three weeks of daily administration) was “substantial tumor regression” and the “average time to death after stopping treatment” value ([2]; drug withdrawn after six weeks of daily 20 mg/kg) was at most 10 days. For the same compound, the “clinical symptoms of medulloblastoma” value ([2]; pilot study, daily IP 20 mg/kg/dose, 19 days of treatment) was “full resolution of clinical symptoms”, the “mice still alive six weeks after starting twice-a-week therapy” value ([2]; six weeks daily then maintenance 20 mg/kg twice per week) was 77% and the survival ([2]; six weeks of daily IPI-926 20 mg/kg IP, vehicle 0%) was 100%.
